Results: patent US20170150719A1, “FUNGICIDAL PYRAZOLES AND THEIR MIXTURES” (E I DU PONT DE NEMOURS AND COMPANY, priority 2010, published 2017)
Marks after values point to notes of the source that are not given here.

Legend:
Septoria nodorum = test: Test E: Septoria glume blotch, preventive spray on wheat seedlings, visual disease rating; settings: 100 = 100% disease control; for Test E rating (disease control): Septoria glume blotch; for Test E rating (disease control) / pest or weed control at 200 µg/mL: 0 = no disease control relative to the controls; for pest or weed control at 200 µg/mL: Parastagonospora nodorum, in Triticum aestivum, read-out: Test E rating (disease control), Septoria glume blotch
Protocol: (§2) General protocol for preparing test suspensions for Tests A-I: the test compounds were first dissolved in acetone in an amount equal to 3% of the final volume and then suspended at the desired concentration (in ppm) in acetone and purified water (50/50 mix by volume) containing 250 ppm of the surfactant Trem® 014 (polyhydric alcohol esters). The resulting test suspensions were then used in Tests A-I. Each test was conducted in triplicate, and the results were averaged. Spraying a 200 ppm test suspension to the point of run-off on the test plants was the equivalent of a rate of about 800 g/ha. Unless otherwise indicated, the rating values indicate a 200 ppm test suspension was used. (An asterisk “*” next to the rating value indicates a 40 ppm test suspension was used.)
The test suspension was sprayed to the point of run-off on wheat seedlings. The following day the seedlings were inoculated with a spore suspension of Septoria nodorum (the causal agent of Septoria glume blotch) and incubated in a saturated atmosphere at 24° C. for 48 h, and then moved to a growth chamber at 20° C. for 9 days, after which time visual disease ratings were made.

[1] = test system: Puccinia recondita f. sp. tritici; test: Test H: wheat leaf rust, preventive spray on wheat seedlings, visual disease rating; settings: 100 = 100% disease control; for Test H rating (disease control): sprayed the day before inoculation; for Test H rating (disease control) / pest or weed control at 200 µg/mL: 0 = no disease control; for pest or weed control at 200 µg/mL: read-out: Test H rating (disease control), wheat leaf rust, sprayed the day before inoculation
Septoria tritici = test: Test F: wheat leaf blotch, preventive spray on wheat seedlings, visual disease rating; assay type: in vivo; design: Test F rating (disease control), value marked *: concentration or dose not given beside the values; settings: for Test F rating (disease control) / pest or weed control at 200 µg/mL: 0 = no disease control relative to the controls; for pest or weed control at 200 µg/mL: Zymoseptoria tritici
Text: (§1) A hyphen (-) indicates no test results.

Botrytis cinerea = test: Test A: tomato Botrytis, preventive spray on tomato seedlings, visual disease rating; settings: 100 = 100% disease control; for Test A rating (disease control) / pest or weed control at 200 µg/mL: 0 = no disease control relative to the controls; for pest or weed control at 200 µg/mL: Botrytis cinerea, in Solanum lycopersicum, read-out: Test A rating (disease control), tomato Botrytis
[2] = test system: Puccinia recondita f. sp. tritici; test: Test G: wheat leaf rust, spray after inoculation (curative) on wheat seedlings, visual disease rating; assay type: in vivo; settings: 100 = 100% disease control; for Test G rating (disease control) / pest or weed control at 200 µg/mL: sprayed after inoculation, 0 = no disease control
Text: as §1

[3] = test system: Blumeria graminis f. sp. tritici; test: Test I: wheat powdery mildew, preventive spray on wheat seedlings, visual disease rating; settings: 100 = 100% disease control; for Test I rating (disease control) / pest or weed control at 200 µg/mL: 0 = no disease control relative to the controls; for pest or weed control at 200 µg/mL: Blumeria graminis, in Triticum aestivum, read-out: Test I rating (disease control), wheat powdery mildew
Alternaria solani = test: Test B: tomato early blight, preventive spray on tomato seedlings, visual disease rating; settings: for Test B rating (disease control): 0 = no disease control relative to the controls; for pest or weed control at 200 µg/mL: Alternaria solani, in Solanum lycopersicum, read-out: Test B rating (disease control)
Protocol: as §2
The test suspension was sprayed to the point of run-off on tomato seedlings. The following day the seedlings were inoculated with a spore suspension of Alternaria solani (the causal agent of tomato early blight) and incubated in a saturated atmosphere at 27° C. for 48 h, and then moved to a growth chamber at 20° C. for 5 days, after which time visual disease ratings were made.

[4] = tomato early blight, 100 = 100% disease control

| SMILES | Test E rating (disease control) (Septoria nodorum) [%] | Test H rating (disease control) ([1]; wheat leaf rust) [%] | Test F rating (disease control) (Septoria tritici; 100 = 100% disease control) [%] | Test A rating (disease control) (Botrytis cinerea; tomato Botrytis) [%] | Test G rating (disease control) [2] [%] | Test I rating (disease control) ([3]; wheat powdery mildew) [%] | Test B rating (disease control) (Alternaria solani; [4]) [%] | pest or weed control at 200 µg/mL (Septoria nodorum) [%] | pest or weed control at 200 µg/mL [1] [%] | pest or weed control at 200 µg/mL (Septoria tritici; 100 = 100% disease control) [%] | pest or weed control at 200 µg/mL (Botrytis cinerea) [%] | pest or weed control at 200 µg/mL [2] [%] | pest or weed control at 200 µg/mL [3] [%] | pest or weed control at 200 µg/mL (Alternaria solani) [%] | further results |
| --- | --- | --- | --- | --- | --- | --- | --- | --- | --- | --- | --- | --- | --- | --- | --- |
| COc1ccc(Nc2c(-c3c(F)cccc3F)c(C)nn2C)c(F)c1 [compound 51] | 0 | 68 | 98 | 100 | 0 | 100 | 99 | – | – | – | – | – | – | – | – |
| COc1cc(F)c(-c2c(C)nn(C)c2Nc2c(F)cc(C#N)cc2F)c(F)c1 [compound 20] | 40 | 68 | 99 | 100 | 0 | 13 | 100 | – | – | – | – | – | – | – | – |
| COc1cc(F)c(-c2c(C)nn(C)c2Nc2ccc(C#N)cc2Cl)c(F)c1 [compound 32] | 82 | 98 | 100 | 99 | 11 | 97 | 97 | – | – | – | – | – | – | – | – |
| CCOc1cc(F)c(-c2c(C)nn(C)c2Nc2c(F)cc(Cl)cc2Cl)c(F)c1 [compound 198] | – | – | – | – | – | – | – | – | – | – | – | – | – | – | Test E rating (% disease control) (Septoria nodorum; Septoria glume blotch on wheat, preventive spray, rating without asterisk): 60%; Test H rating (% disease control) ([1]; wheat leaf rust, preventive spray, rating without asterisk): 80%; Test F rating (% disease control) (Septoria tritici; preventive spray, 100 = 100% disease control, rating without asterisk): 100%; Test A rating (% disease control) (Botrytis cinerea; tomato Botrytis, preventive spray, 0 = no control relative to controls, rating without asterisk): 100%; Test G rating (% disease control) ([2]; spray after inoculation, rating without asterisk): 9%; Test I rating (% disease control) ([3]; wheat powdery mildew, preventive spray, rating without asterisk): 96%; Test B rating (% disease control) (Alternaria solani; tomato early blight, preventive spray, 100 = 100% disease control, rating without asterisk): 100% |
| Cc1nn(C)c(Nc2c(F)cc(Cl)cc2Cl)c1-c1ccc(F)cc1F [Compound 141, N-(2,4-dichloro-6-fluorophenyl)-4-(2,4-difluorophenyl)-1,3-dimethyl-1H-pyrazol-5-amine] | – | – | – | – | – | – | – | 99 | 100 | 100 | 99 | 97 | 100 | 99 | – |
| Cc1nn(C)c(Oc2ccc(C#N)cc2Cl)c1-c1ccc(F)cc1Cl [Compound 37, 3-chloro-4-[[4-(2-chloro-4-fluorophenyl)-1,3-dimethyl-1H-pyrazol-5-yl]oxy]benzonitrile] | – | – | – | – | – | – | – | 100 | 99 | 100 | 100 | 69 | 100 | 86 | – |
| Cc1nn(C)c(Nc2ccc(F)cc2F)c1-c1ccc(Cl)cc1Cl [Compound 17, 4-(2,4-dichlorophenyl)-N-(2,4-difluorophenyl)-1,3-dimethyl-1H-pyrazol-5-amine] | – | – | – | – | – | – | – | 60 | 99 | 99 | 100 | 91 | 100 | 73 | – |
| Cc1nn(C)c(Nc2ccc(Cl)cc2Cl)c1-c1c(F)cccc1Cl [compound 78] | 0 | 99 | – | 99 | 9 | 100 | 65 | – | – | – | – | – | – | – | Test F rating (disease control), value marked * (Septoria tritici; rating marked with asterisk (*), other test condition, not explained in the text shown): 99* % |
| Cc1nn(C)c(Nc2c(F)cccc2F)c1-c1ccc(F)cc1Cl [Compound 46, 4-(2-chloro-4-fluorophenyl)-N-(2,6-difluorophenyl)-1,3-dimethyl-1H-pyrazol-5-amine] | – | – | – | – | – | – | – | 87 | 99 | 100 | 100 | 0 | 100 | 100 | – |
| COc1ccc(-c2c(C)nn(C)c2Oc2ccc(C#N)cc2Cl)c(Cl)c1 [compound 93] | 60 | 99 | 100 | 100 | 0 | 91 | 0 | – | – | – | – | – | – | – | – |
| Cc1nn(C)c(Oc2c(F)cc(C#N)cc2F)c1-c1ccccc1Br [compound 76] | 99 | 99 | 99 | 100 | 0 | 99 | 97 | – | – | – | – | – | – | – | – |
| COc1cc(F)c(Nc2c(-c3c(F)cccc3Cl)c(C)nn2C)c(F)c1 [compound 55] | 80 | 100 | 100 | 99 | 94 | 99 | 99 | – | – | – | – | – | – | – | – |
| Cc1nn(C)c(Nc2c(Cl)cc(Br)cc2Cl)c1-c1ccc(F)cc1F [compound 155] | 0 | 97 | 100 | 100 | 94 | 99 | 0 | – | – | – | – | – | – | – | – |
| COc1cc(F)c(Nc2c(-c3ccc(Cl)cc3Cl)c(C)nn2C)c(F)c1 [compound 16] | 84 | 99 | 98 | 99 | 98 | 99 | 98 | – | – | – | – | – | – | – | – |
| Cc1nn(C)c(Nc2c(F)cc(F)cc2Cl)c1-c1ccc(F)cc1F [Compound 117, N-(2-chloro-4,6-difluorophenyl)-4-(2,4-difluorophenyl)-1,3-dimethyl-1H-pyrazol-5-amine] | – | – | – | – | – | – | – | 97 | 100 | 100 | 100 | 91 | 100 | 100 | – |
| Cc1nn(C)c(Nc2c(Cl)cc(F)cc2Cl)c1-c1ccc(F)cc1Br [compound 98] | 0 | 99 | 99 | 99 | 9 | 96 | 0 | – | – | – | – | – | – | – | – |
